# Reference: article PMC6127270 (Frontiers in Pharmacology, 2018)
# Where two headings read alike, the source gives them in different places.
# Experiments:
# human DOR = target: T1, human DOR (Homo sapiens, UniProt P41143); experiment: [35S]GTPγS binding, CHO-hDOR membranes; assay type: biochemical; details: for [35S]GTPγS Binding DOR % stim.: relative to DPDPE
# T1 construct: host or cells: CHO
# [1] = Charcoal meal test (gastrointestinal transit); details: male, CD-1, mouse, in vivo, sc
# CD-1 mice [2] = experiment: Charcoal meal test (gastrointestinal transit); details: mice; for Inhibition of gastrointestinal transit at highest tested dose: highest doses morphine 8000, 14-OMO 90, POMO […]
# human KOR = target: T2, human KOR (Homo sapiens, UniProt P41145); experiment: biochemical; assay type: biochemical
# T2 construct: host or cells: CHO
# [3] = tested on: mouse vas deferens (MVD) preparation; design: method as in Lattanzi et al., 2005; details: values marked c (footnote not given); ref Lattanzi et al., 2005; read-out: Bioassay IC50 MVD; cited from earlier work
# human MOR = target: T3, human MOR (Homo sapiens, UniProt P35372); experiment: [35S]GTPγS binding, CHO-hMOR membranes; assay type: biochemical; details: for [35S]GTPγS Binding MOR % stim.: relative to DAMGO
# T3 construct: host or cells: CHO
# [4] = tested on: guinea-pig ileum (GPI) myenteric plexus-longitudinal muscle preparation; design: method as in Lattanzi et al., 2005; details: values marked c (footnote not given); ref Lattanzi et al., 2005; read-out: Bioassay IC50 GPI; cited from earlier work
# CD-1 mice [5] = details: s.c., hot-plate, values marked c (footnote not given), ref Lattanzi et al., 2005; cited from earlier work
# [6] = tested on: guinea-pig ileum (GPI) myenteric plexus-longitudinal muscle preparation; details: for IC50: read-out: Bioassay IC50 GPI, inhibition of electrically evoked twitch
# [7] = tested on: mouse vas deferens (MVD) preparation; details: for IC50: read-out: Bioassay IC50 MVD, inhibition of electrically evoked twitch
# MOR = target: T4, MOR (Rattus norvegicus, UniProt P33535); experiment: Competition binding, [3H]DAMGO, rat brain membranes
# T4 construct: Membranes were prepared from Sprague–Dawley rat brains or guinea-pig brains; from tissue; host or cells: Sprague-Dawley rat brain
# DOR = target: T5, DOR (Rattus norvegicus, UniProt P33533); experiment: Competition binding, [3H][Ile5,6]deltorphin II, rat brain membranes
# T5 construct: Membranes were prepared from Sprague–Dawley rat brains or guinea-pig brains; from tissue; host or cells: Sprague-Dawley rat brain
# [8] = tested on: guinea-pig ileum (GPI) myenteric plexus-longitudinal muscle preparation; experiment: tissue or blood; details: Cavia porcellus, read-out: Bioassay IC50 GPI
# [9] = tested on: mouse vas deferens (MVD) preparation; experiment: tissue or blood; details: read-out: Bioassay IC50 MVD
# KOR = target: T6, KOR (Cavia porcellus, UniProt P41144); experiment: Competition binding, [3H]U69,593, guinea-pig brain membranes
# T6 construct: Membranes were prepared from Sprague–Dawley rat brains or guinea-pig brains; from tissue; host or cells: guinea-pig brain
# CD-1 mice [10] = experiment: Hot-plate assay (acute thermal nociception); assay type: in vivo, mouse
compound,measurement,setting,value
"CO[C@@]12CCC(=O)[C@@H]3Oc4c(O)ccc5c4[C@@]31CCN(C)[C@@H]2C5 [14-OMO, 14-O-methyloxymorphone, reference compound]",EC50,human DOR,43.8 ± 11.7 nM
same,[35S]GTPγS Binding DOR % stim.,human DOR,106 ± 1%
same,ED50 at 30 min,[1],0.037 µmol/kg
same,Inhibition of gastrointestinal transit at highest tested dose,"CD-1 mice [2]; charcoal test, s.c.",90%
same,EC50,human KOR,144 ± 32 nM
same,[35S]GTPγS Binding KOR % stim.,human KOR,65 ± 7%
same,IC50,[3],30.5 ± 5.5 nM
same,EC50,human MOR,1.62 ± 0.48 nM
same,[35S]GTPγS Binding MOR % stim.,human MOR,97 ± 6%
same,IC50,[4],2 ± 0.3 nM
same,Antinociceptive activity AD50 (95% CI),CD-1 mice [5],53 (48–58)^c μg/kg
"C[C@@H](NC(=O)[C@@H](N)Cc1ccc(O)cc1)C(=O)NCC(=O)N(C)[C@@H](Cc1ccccc1)C(=O)NCCO [DAMGO, [D-Ala^2,N-Me-Phe^4,Gly-ol^5]enkephalin, reference compound]",[35S]GTPγS Binding MOR % stim.,human MOR,100%
"CC(C)[C@H](NC(=O)[C@H](CC(=O)O)NC(=O)[C@H](Cc1ccccc1)NC(=O)[C@@H](C)NC(=O)[C@@H](N)Cc1ccc(O)cc1)C(=O)N[C@H](C(=O)NCC(N)=O)C(C)C [Deltorphin I, deltorphin I, reference compound]",IC50,[6],1240 ± 132 nM
same,IC50,[7],0.19 ± 0.03 nM
"C[C@@H](NC(=O)[C@@H](N)Cc1ccc(O)cc1)C(=O)N[C@@H](Cc1ccccc1)C(=O)NCC(=O)N[C@@H](Cc1ccc(O)cc1)C(=O)N1CCC[C@H]1C(=O)N[C@@H](CO)C(N)=O [Dermorphin, reference compound]",IC50,[6],1.3 ± 0.27 nM
same,IC50,[7],18 ± 0.31 nM
"CN1CC[C@]23c4c5ccc(O)c4O[C@H]2[C@@H](O)C=C[C@H]3[C@H]1C5 [Morphine, Morphine hydrocloride, reference compound]",ED50 at 30 min,[1],3.8 µmol/kg
same,Inhibition of gastrointestinal transit at highest tested dose,"CD-1 mice [2]; charcoal test, s.c.",completely abolishing transit
same,Antinociceptive activity AD50 (95% CI),CD-1 mice [5],6690 (4468–9348)^c μg/kg
"CN1CC[C@]23c4c5ccc(O)c4O[C@H]2C(=O)CC[C@@]3(OCCCc2ccccc2)[C@H]1C5 [POMO, 14-O-phenylpropyloxymorphone]",Ki,MOR,0.073 ± 0.007 nM
same,Selectivity DOR/MOR,MOR; ratio of Ki values,1.8
same,Selectivity KOR/MOR,MOR; ratio of Ki values,4.1
same,Ki,DOR,0.13 ± 0.02 nM
same,EC50,human DOR,0.28 ± 0.14 nM
same,Agonist efficacy at DOR,human DOR; [35S]GTPγS binding,full efficacy
same,Fold increase in potency (EC50) than 14-OMO at DOR,human DOR; [35S]GTPγS binding,151 fold
same,[35S]GTPγS Binding DOR % stim.,human DOR,91 ± 8%
same,Fold more potent than morphine as agonist in GPI,[6],over 250 fold
same,ED50 at 30 min,[1],0.0017 µmol/kg
same,Inhibition of gastrointestinal transit compared with 14-OMO and morphine,CD-1 mice [2]; charcoal test,fourfold less inhibition
same,Inhibition of gastrointestinal transit at highest tested dose,"CD-1 mice [2]; charcoal test, s.c.",50%
same,Ratio ED50(constipation) vs. AD50(antinociception),CD-1 mice [2]; s.c.,2.43
same,Agonist efficacy at KOR,human KOR,partial agonism
same,EC50,human KOR,0.38 ± 0.13 nM
same,Fold increase in potency (EC50) than 14-OMO at KOR,human KOR,411 fold
same,[35S]GTPγS Binding KOR % stim.,human KOR,39 ± 5%
same,IC50,[8],1.2 ± 0.21 nM
same,IC50,[9],0.03 ± 0.0013 nM
same,EC50,human MOR,0.082 ± 0.017 nM
same,Agonist efficacy at MOR,human MOR; [35S]GTPγS binding,full efficacy
same,Fold increase in potency (EC50) than 14-OMO at MOR,human MOR; [35S]GTPγS binding,20 fold
same,[35S]GTPγS Binding MOR % stim.,human MOR,100 ± 8%
same,Fold more potent than 14-OMO as agonist in MVD,[7],1000 fold
same,Fold more potent than morphine as agonist in MVD,[7],"> 50,000 fold"
same,Ki,KOR,0.3 ± 0.01 nM
same,Antagonism of antinociception by naloxone,"CD-1 mice [10]; POMO 2 nmol/kg s.c., 20 min, naloxone 1 mg/kg s.c., -10 min",significantly antagonized
same,Antagonism of antinociception by naltrindole,"CD-1 mice [10]; POMO 2 nmol/kg s.c., 20 min, naltrindole 3 mg/kg s.c., -10 min",did not antagonize
same,Antagonism of antinociception by nor-BNI,"CD-1 mice [10]; POMO 2 nmol/kg s.c., 20 min, nor-BNI 20 mg/kg s.c., -24 h",did not antagonize
same,Fold increased antinociceptive potency than 14-OMO,"CD-1 mice [10]; hot-plate, mice, s.c.",over 70 fold
same,Fold increased antinociceptive potency than morphine,"CD-1 mice [10]; hot-plate, mice, s.c.",> 9000 fold
same,Time of peak antinociceptive response,"CD-1 mice [10]; hot-plate, mice, s.c.",20 min
same,Fold increase in antinociceptive potency than oxymorphone,"CD-1 mice [10]; hot-plate, mice, s.c., oxymorphone value from Dumitrascuta et al., 2017",> 1400 fold
same,AD50 hot-plate test,"CD-1 mice [10]; mice, s.c.",0.7 nmol/kg
same,Antinociceptive activity AD50 (95% CI),"CD-1 mice [10]; mice, s.c., hot-plate, at peak of action",0.70 (0.63–0.77) μg/kg
